# pEC50: −log10 of the molar value.
# Legend:
# MSTO-211H xenograft = experiment: Mouse xenograft MSTO-211H tumors, study part 1; format: in vivo, BALB/c nude mice; conditions: PO; for Tumor size (mean ± SEM) / T/C / TGI: BID; for Tumor Volume (mean ± SEM): BID (Table 16)
# Source text: This study evaluated the in vivo anti-tumor efficacy of test compounds in BALB/c nude mice for treatment of MSTO-211H xenograft of lung cancer.
# • Species: Mus Musculus • Strain: BALB/c nude • Age: 6-8 weeks • Sex: female • Body weight: 18-22 g • Number of animals inoculated with tumor: 80 mice • Number of animals enrolled in the treatment: 36 mice • Number of unenrolled animals: 44 mice • Animal supplier: Beijing Vital River Biotechnology Experimental Animal Co. Ltd Certification number: 20170011010591
# The MSTO-211H tumor cells were maintained in RPMI 1640 medium supplemented with 10% Fetal bovine serum and 1% Antibiotic-Antimycotic at 37° C. in an atmosphere of 5% CO2 in air. The tumor cells were routinely subcultured twice weekly by trypsin-EDTA. The cells growing in an exponential growth phase with 95% cell survival or above were harvested, and counted for tumor inoculation.
# Each mouse was inoculated subcutaneously at the right flank with MSTO-211H tumor cells (5×10^6+50% matrigel/0.2 mL) for tumor development. Animals were marked with earrings with unique 6 significant figure number for identification. The treatments of part 1 were started on day 5 after cell inoculation when the average tumor volume reached 181 mm^3. The treatments of part 2 were started on day 16 after cell inoculation when the average tumor volume reached 254 mm^3. The treatments of part 3 were started on day 33 after cell inoculation when the average tumor volume reached 969 mm^3.
# The major endpoint was to determine if the tumor growth could be delayed. Tumor volume was measured twice a week in two dimensions using a caliper, and the volume was expressed in mm^3 using the formula: V=0.5 a×b^2 where a and b are the long and short diameters of the tumor, respectively. The tumor size was then used for calculations of T/C value. The TGI value (in percent) or the T/C value (in percent) is an indication of antitumor effectiveness; T and C are the mean tumor volumes or tumor weights of the treated and control groups, respectively, on a given day.
# TGI was calculated for each group using the formula: TGI (%)=[1−(Ti−T0)/(Vi−V0)]×100; Ti is the average tumor volume of a treatment group on a given day, T0 is the average tumor volume of the treatment group on the day of treatment start, Vi is the average tumor volume of the vehicle control group on the same day with Ti, and V0 is the average tumor volume of the vehicle group on the day of treatment start.
# Relative T/C (%)=TRTV/CRTV×100 (RTV (%)=Vt/V0×100, Vt is the average tumor volume on a given day, V0 is the average tumor volume on the first day of treatment. TRTV is the RTV of a treatment group, and the CRTV is the RTV of the vehicle control group.)
# The antitumor effectiveness of part 1 study was analyzed on PG-D31 when vehicle group reached 681 mm^3.
# Summary statistics, including mean and the standard error of the mean (SEM), were provided for the tumor volume of each group at each time point.
# Statistical analysis of difference in tumor volume among the groups was conducted on the data obtained at the end of the study.
# One-tailed T test was performed to compare tumor volumes between two groups. All data are analyzed using GraphPad Prism 6.0. p<0.05 is considered to be statistically significant.
# SDM103T2 cells = experiment: SDM103T2 proliferation and cell viability assay (CTG); format: cell-based; conditions: 144 hours
# Procedure: SDM103T2 cells were trypsinised, counted and plated at 800 cells/well in 200 μl of growth media in 96 well flat bottom tissue culture treated plates. The plated cells were incubated overnight at 37° C., 5% CO2 before being treated with compounds in triplicate for each assay point. 50 μl of the serially diluted compound was added to each well giving a final DMSO concentration of 0.5% per well and a total volume of 250 μl per well. The treated cells were incubated for 144 hours (6 days) at 37° C., 5% CO2. Following compound treatment the remaining viable cells were detected using the Promega CellTiter-Glo 2.0 assay as follows: 150 μl of media was removed from each of the wells to be assayed and 100 μl of room temperature CellTiter-Glo 2.0 reagent was added. The plate was placed on an orbital shaker at 500 rpm at room temperature for 2 minutes, and then incubated without shaking for a further 10 minutes at room temperature. 150 μl of cell lysate was removed from each well and dispensed into a single well of a white opaque 96 well plate. Luminescence at 545 nm was read using a BMG CLARIOstar plate reader. The luminescent signal was directly proportional to number of viable cells, the percent of viable cells relative to the DMSO control was then calculated for each assay point. Percent viability relative to DMSO control was plotted against compound concentration and a curve fitted with non-linear regression in GraphPad Prism software. EC50 and absolute IC50 values were calculated using GraphPad Prism software as follows: For EC50 values a non-constrained four-parameter logistic curve fit was used (Sigmoidal, 4PL, X is concentration). For Absolute IC50 values the baseline was constrained to Y=0 and top at 100 (Absolute IC50, X is concentration). Area Under the Curve (AUC): Prism computes area-under-the-curve by the trapezoidal method. The analysis sees a fitted curve as simply a series of connected XY points. Prism simply computes the area under the “curve” defined by connecting the points by straight lines. The units of the AUC are the units of the Y axis times units of the X axis.
# For EC50 data, the symbol “A” indicates a value of less than 0.2 μM; the symbol “B” indicates a value in the range of from 0.2 μM up to 1 μM; and the symbol “C” indicates a value of greater than 1 μM.
Structure (SMILES),"Tumor size (mean ± SEM) (MSTO-211H xenograft; part 1, day 0, 12.5 mg/kg) [mm^3]","Tumor size (mean ± SEM) (MSTO-211H xenograft; part 1, day 3, 12.5 mg/kg) [mm^3]","Tumor size (mean ± SEM) (MSTO-211H xenograft; part 1, day 6, 12.5 mg/kg) [mm^3]","Tumor size (mean ± SEM) (MSTO-211H xenograft; part 1, day 10, 12.5 mg/kg) [mm^3]","Tumor size (mean ± SEM) (MSTO-211H xenograft; part 1, day 13, 12.5 mg/kg) [mm^3]","Tumor size (mean ± SEM) (MSTO-211H xenograft; part 1, day 17, 12.5 mg/kg) [mm^3]","Tumor size (mean ± SEM) (MSTO-211H xenograft; part 1, day 20, 12.5 mg/kg) [mm^3]","Tumor size (mean ± SEM) (MSTO-211H xenograft; part 1, day 23, 12.5 mg/kg) [mm^3]","Tumor size (mean ± SEM) (MSTO-211H xenograft; part 1, day 27, 12.5 mg/kg) [mm^3]","T/C (MSTO-211H xenograft; part 1, day 31, 12.5 mg/kg) [%]","TGI (MSTO-211H xenograft; part 1, day 31, 12.5 mg/kg) [%]","Tumor size (mean ± SEM) (MSTO-211H xenograft; part 1, day 31, 12.5 mg/kg) [mm^3]","Tumor Volume (mean ± SEM) (MSTO-211H xenograft; part 1, day 31, 12.5 mg/kg) [mm^3]",pEC50 (SDM103T2 cells)
"Cn1nnc(-c2cc([C@]3(C)CCNC3=O)ccc2Nc2ccc(C(F)(F)F)cc2)n1 (stereo in doubt) [Compound 20, 3-methyl-3-(3-(2-methyl-2H-tetrazol-5-yl)-4-((4-(trifluoromethyl)phenyl)amino)phenyl) pyrrolidin-2-one]",181 ± 7,183 ± 26,188 ± 52,117 ± 44,92 ± 28,66 ± 10,60 ± 13,59 ± 16,75 ± 18,8.81,124.25,60 ± 11,60 ± 11,> 6.70
"Cn1cnc(-c2cc([C@@]3(C)CCNC3=O)ccc2Nc2ccc(C(F)(F)F)cc2)c1 (single isomer, unassigned) [Compound 5, 3-methyl-3-(3-(1-methyl-1H-imidazol-4-yl)-4-((4-(trifluoromethyl)phenyl)amino)phenyl)pyrrolidin-2-one]",181 ± 11,241 ± 31,230 ± 30,151 ± 18,117 ± 10,63 ± 13,72 ± 15,64 ± 7,79 ± 13,11.82,120.17,81 ± 18,81 ± 18,> 6.70
"C=CC(=O)Nc1ccc(C)c(Oc2ccc(Cl)cc2)c1 [Compound 1-3, reference compound]",,,,,,,,,,,,,,> 6.70
"FC(F)(F)c1ccc(CN2CCC(C3CC(Br)=NO3)CC2)cc1 (centres unmarked) [Compound 1-2, reference compound]",,,,,,,,,,,,,,< 6.00
"Cn1cnc(-c2cc(C3(C)NC(=O)NC3=O)ccc2Nc2ccc(C(F)(F)F)cc2)c1 (single isomer, unassigned) [Compound 15, 5-methyl-5-(3-(1-methyl-1H-imidazol-4-yl)-4-((4-(trifluoromethyl)phenyl)amino)phenyl)imidazolidine-2,4-dione]",181 ± 11,216 ± 27,175 ± 19,154 ± 5,111 ± 13,88 ± 12,105 ± 6,134 ± 10,166 ± 20,23.57,104.12,161 ± 12,161 ± 12,> 6.70
